The values below come from patent EP1087941B9, “THIOLESTERS AND USES THEREOF” (THE UNITED STATES OF AMERICA, as represented by THE …, priority 1998, dated 1999).

Entries after “also recorded” stand apart in the source; their conditions may differ. Where only a bound is given, the exact number is not on record here.

In assay [1] the target is T1, Virion-associated NCp7 proteins from cell-free HIV-1MN (Human immunodeficiency virus type 1 group M subtype B, UniProt P05888).
T1 construct: an attack on the mature NCp7 retroviral zinc fingers in the cell-free virus; endogenous in cells
Kind of assay: Intravirion NCp7 cross-linking, non-reducing Western blotting. On the procedure: The interaction of zinc finger inhibitors, such as the thiolesters of the invention, with cell-free virus can result in modification of intravirion NCp7 protein and loss of infectivity. Virion-associated NCp7 proteins from cell-free HIV-1MN were treated with thiolester compounds 44 and 45. They were also evaluated by non-reducing Western blotting using HIV-1 NCp7-specific antibodies. […] Cross-linking by compound 45 was due to formation of intermolecular disulfide bonds because reduction with 2-mercaptoethanol (β-ME) completely reversed the gel retardation.
Virion cross linking was performed as described by Rice (1995) Science 270:1194-1197 and Turpin (1997) Antiviral Chem. Chemother. 8:60-67. Briefly, highly purified HIV-1 MN (11.8 µg total protein) was incubated for 2 hour with concentrations of compound. Virions were concentrated and residual compound was removed by centrifugation (18,000 x g, 1 h, 4°C). The viral pellet was solubilized in 0.5 M Tris-HCl,(pH 6.8), 50% glycerol, 8% SDS and 0.4% bromophenol blue and proteins resolved by Western blotting. Western blotting to detect the expression of HIV-1 proteins in U1 cells or virus pellets for virion cross-linking experiments was carried out as described by Turpin (1996) J. Virol. 70:6180-6189. Briefly, 50 µg of total cellular protein for U1 experiments or the total virion pellet (11.8 µg total viral protein) for NCp7 cross linking studies was resolved on 4 to 20% polyacrylamide gels in SDS with Tris-Glycine (Novex, San Diego CA). Samples for reduced gels were boiled for 5 min in the presence of 5% β-ME prior to loading. Resolved proteins were electroblotted on to polyvinylidene difluoride (PVDF) membranes, and HIV-1 specific proteins were detected using a mixture of goat anti- HIV-1 NCp7 and p24 or anti-NCp7 for virion proteins alone (a kind gift of L. E. Henderson, AIDS Vaccine Program NCI-FCRDC, Frederick, MD). Western blots were developed using standard chemiluminescence methodologies, as produced and described by Dupont-NEN, Wilmington, DE.
Purified concentrated retrovirus and antisera against the purified NC protein of the virus can be used to test the ability of a specific compound to penetrate the virus and react with the NC protein by forming disulfide complexes in the core of the virus. Compound are mixed with the whole retrovirus under reaction conditions appropriate for the compound. The virus is then removed from the reagent by centrifugation and disrupted in, e.g., standard SDS-PAGE sample buffer with (reduced) and without (non-reduced) 2-mercaptoethanol. […] Thus, compounds of interest (i.e., those which cause cross-linking), including the thiolesters of the invention, reduce the amount of monomeric zinc finger protein detected.
Background: In western blotting, separated proteins are transferred to a membrane and probed.

The target of assay [2] is T2, recombinant HIV-1 integrase (Human immunodeficiency virus type 1 group M subtype B, UniProt P03366).
T2 construct: The ability of recombinant HIV-1 integrase; S. Hughes, ABL Basic Research NCI-FCRDC, Frederick MD (supplied, not a catalogue product)
Kind of assay: Integrase 3' processing and strand transfer assay. The class given is biochemical. The settings on record: for IC50: Table 7, high dose test of 100 µM, read-out: Integrase I50. On the procedure:
The 5-bromovaleroyl thioester, compound 44, and two 5-pyridiniovaleroyl thioesters, compounds 45 and 47, were analyzed in mechanistic and target-based assays. […] Assays for activity against HIV-1 reverse transcriptase rAdT (template/primer) and rCdG (template/primer) using recombinant HIV-1 reverse transcriptase (S. Hughes, ABL Basic Research NCI-FCRDC, Frederick MD) were performed as described by Rice (1997) supra. Substrate cleavage of recombinant HIV-1 protease in the presence of test compounds using an HPLC-based methodology with the artificial substrate Ala-Ser-Glu-Asn-Try- Pro-Ile-Val-amide (Multiple Peptide Systems, San Diego CA) was performed as described by Rice (1997) supra. The ability of recombinant HIV-1 integrase (S. Hughes, ABL Basic Research NCI-FCRDC, Frederick MD) to carry out 3' processing and strand transfer activities in the presence of test compounds was performed as described by Buckheit (1994) AIDS Res. Hum. Retroviruses 10:1497-1506, and Turpin (1998) Antimicrob. Agents Chemother. 42: 487-494.

In the case of `CC(=O)NS(=O)(=O)c1ccc(NC(=O)c2ccccc2SC(=O)CCCCBr)cc1` [Compound 44, N-[2-(5-bromovaleroylthio)benzoyl]sulfacetamide], the “intravirion NCp7 cross-linking” value in assay [1] is given as “very poor cross-linking agent”. Further, in assay [2], the “inhibition of HIV-1 integrase enzyme activity” value (“inhibition” below) is recorded as “did not inhibit” and the IC50 was > 100 µM.

For `CC(=O)NS(=O)(=O)c1ccc(NC(=O)c2ccccc2SC(=O)CCCC[n+]2ccccc2)cc1` [Compound 45, N-[2-(5-pyridinio-valeroylthio)benzoyl]sulfacetamide bromide], the “intravirion NCp7 cross-linking” value in assay [1] is listed as “extensive cross-linking of NCp7; also recorded: strong cross-linker of intravirion NCp7”. Besides, in assay [2], the “inhibition” value is recorded as “did not inhibit” and the IC50 is > 100 µM.

With `O=C(CCCC[n+]1ccccc1)Sc1ccccc1C(=O)Nc1ccc(S(=O)(=O)c2ccc([N+](=O)[O-])cc2)cc1` [Compound 47], in assay [1], the “intravirion NCp7 cross-linking” value was “did not effectively initiate NCp7 cross-linking”. In addition, in assay [2], the “inhibition” value is “did not inhibit”.
